# Read-outs that look alike come from different tables or passages of the source. Square brackets hold non-standard residues; d marks the D form. Peptide text beside a SMILES is read from it. * marks the point of attachment. AMC = Cc1cc(=O)oc2cc(N*)ccc12; pGlu = O=C1CC[C@@H](C(=O)O)N1
# Experiments:
# [1] = molecular target: native rat cortical TRH receptors; assay: TRH receptor binding: displacement of [3H][3-Me-His2]TRH from rat cortical membranes; details: for Affinity for [3H]-3MeHis-TRH-labelled receptors in rat brain cortex: result in words; for Affinity for [3H]-3MeHis-TRH-labelled receptors compared with 3MeHis-TRH: rat brain cortex
# Method: It cannot be ruled out, however, that [^3H][3-Me-His^2]TRH is binding to a TRH receptor subtype in rat brain cortex that has yet to be identified.
# Radioligand binding assays were carried out to examine the ability of these TRH-DE inhibitors to bind to TRH receptors. This was achieved by measuring the ability of the inhibitors to displace [^3H][3-Me-His^2]TRH binding to rat cortical membranes. Membranes were prepared from the cortex of male Wistar rats. The binding of [^3H]-3MeHis-TRH to TRH receptors in cortical membranes was measured as described previously (Kelly et al., 2002) using 10 mM TRH to define non-specific binding. The affinity of TRH-DE inhibitors for TRH receptors was determined in competition experiments and data were analyzed using GraphPad Prism. […] The rank order of potency of D isomer inhibitors was JAK4-D>JAK2-D>JAK1-D.
# [2] = molecular target: T1, TRH-DE purified from porcine brain (Sus scrofa, UniProt A0A287AP33); assay: Inhibition of purified TRH-DE (kinetic/fluorometric assays); type: biochemical; details: read-out: Ki values for TRH-DE inhibitors
# T1 construct: TRH-DE purified from porcine brain; from tissue; host or cells: porcine brain
# Excerpt: The binding capacity offered by in the vicinity of the S2′ binding site of TRH-DE was studied. […] The L-amino acids in these peptides were replaced with D-amino acids. The vast majority of naturally occurring polypeptides are composed of L-amino acids and mammalian proteolytic enzymes are designed to work with this stereochemistry. Thus, replacement of L-amino acids by D-amino acids is used in the art in an endeavor to confer stability to proteolytic degradation as described in U.S. Pat. No. 6,703,366. It is recognized by the art that this type of replacement, however, may lead to loss of peptide specificity and or activity as noted by U.S. Pat. No. 4,587,233, Sato et al. 1987 and Fischer 2003, and thus the effect of the replacement is unpredictable. […] Replacement of L-amino acids by D-amino acids may also be used to scan the relative importance of the stereochemistry of particular functional groups in a peptide structure and also that of local structures within the peptide (Hruby, 2002).
# The ability of compounds to be hydrolysed by and to inhibit TRH-DE purified from porcine brain was determined using kinetic assays as previously described (Kelly et al. 1999, 2000a, 2000b, U.S. Pat. application 20030166944). […] [JAK 1, JAK 2, JAK 3, JAK 4 and JAK 5 are described in U.S. Pat. App. No. 20030166944.]
# HPLC analysis was used, as previously described (Kelly et al. 2000a, U.S. Pat. App. 20030166944), to assess the ability of each compound listed above to act as a TRH-DE substrate. […] Compounds were then screened for their ability to inhibit TRH-DE purified from porcine brain using fluorometric assays, as previously described (Kelly et al. 2000a, U.S. Pat. App. 20030166944).
# Male Wistar rats [3] = assay: Wet dog shaking (WDS) behavior; type: in vivo, rat
# Male Wistar rats [4] = assay: Rat behaviour total activity score; type: in vivo
# Method: These include, increased locomotor activity (21-22), induction of blinking and forepaw licking and body shaking behavior, often referred to as 'wet dog shakes' (WDS) Kelly et al., 2000b). […] Male Wistar rats (150-250 g) were placed in individual perspex boxes and allowed to acclimatize for 20 min. […] Individual behaviors were recorded for 30 sec at 5 min intervals by an observer who was blind to treatment. Behaviors during each observation period were summed to yield a total activity score.
# Male Wistar rats [5] = assay: Antagonism of barbiturate-induced sleep time (analeptic effect); type: in vivo, rat; details: 1 mg/kg i.v.; for Sleep time: 10 min after sodium pentobarbitone 30 mg/kg i.p., mean ± SEM; for Effect on barbiturate-induced sleep time: result in words
# Method: The antagonism of barbiturate-induced anesthesia is a well-recognized pharmacological effect of TRH and is used in the art to indicate successful central delivery and activity of TRH analogues. […] Male Wistar rats (150-250 g) were anaesthetized with sodium pentobarbitone (30 mg/kg i.p.). […] Animals were placed on their backs and sleep times recorded. From Table III it can be seen that both […] [table]
# [6] = test system: native rat cortical TRH receptors; details: cited from earlier work; for Affinity compared to TRH for [3H]-3MeHis-TRH-labelled receptors in rat cortical membranes: previous studies (Kelly et al., 2002)
# Male Wistar rats [7] = details: Kelly et al., 2000b; cited from earlier work
# [8] = L isomer, JAK compounds dissolved in DMSO, read-out: Ki, inhibition of [3H]-3MeHis-TRH binding, X is L isomer aa
# [9] = D isomer, JAK compounds dissolved in DMSO, read-out: Ki, inhibition of [3H]-3MeHis-TRH binding, X is D isomer aa
# T1 sequence (A0A287AP33 1-1066): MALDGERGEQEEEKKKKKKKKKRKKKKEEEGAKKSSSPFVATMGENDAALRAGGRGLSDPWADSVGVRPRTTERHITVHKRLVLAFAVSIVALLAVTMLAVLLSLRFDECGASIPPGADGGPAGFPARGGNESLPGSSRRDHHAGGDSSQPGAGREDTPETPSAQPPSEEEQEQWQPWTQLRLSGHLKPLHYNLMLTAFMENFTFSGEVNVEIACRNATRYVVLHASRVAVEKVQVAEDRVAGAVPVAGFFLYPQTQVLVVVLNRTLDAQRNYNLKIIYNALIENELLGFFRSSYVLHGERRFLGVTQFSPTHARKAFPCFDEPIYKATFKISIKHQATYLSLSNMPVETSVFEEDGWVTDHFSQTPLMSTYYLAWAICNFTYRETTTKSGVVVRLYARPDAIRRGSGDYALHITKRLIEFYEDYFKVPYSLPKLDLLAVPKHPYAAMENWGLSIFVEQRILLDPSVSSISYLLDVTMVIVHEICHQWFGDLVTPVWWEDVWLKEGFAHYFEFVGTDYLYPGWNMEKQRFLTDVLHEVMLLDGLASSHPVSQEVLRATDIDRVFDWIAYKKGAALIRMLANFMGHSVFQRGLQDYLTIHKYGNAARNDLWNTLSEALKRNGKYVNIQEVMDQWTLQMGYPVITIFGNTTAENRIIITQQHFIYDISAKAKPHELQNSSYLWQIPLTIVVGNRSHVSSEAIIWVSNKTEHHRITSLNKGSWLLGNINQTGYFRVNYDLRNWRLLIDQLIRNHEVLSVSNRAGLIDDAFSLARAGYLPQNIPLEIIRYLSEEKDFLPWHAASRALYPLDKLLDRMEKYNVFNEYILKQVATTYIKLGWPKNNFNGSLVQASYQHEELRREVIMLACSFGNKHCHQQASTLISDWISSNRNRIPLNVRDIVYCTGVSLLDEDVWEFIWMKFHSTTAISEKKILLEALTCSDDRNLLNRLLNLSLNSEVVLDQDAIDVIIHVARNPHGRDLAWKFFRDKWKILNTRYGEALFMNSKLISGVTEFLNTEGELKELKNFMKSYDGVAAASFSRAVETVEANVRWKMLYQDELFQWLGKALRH
compound,measurement,setting,value
"Cn1cncc1C[C@H](NC(=O)[C@@H]1CCC(=O)N1)C(=O)N1CCC[C@H]1C(N)=O [3-MeHis-TRH, reference compound]",Ki,"[1]; in DMSO, read-out: Ki, inhibition of [3H]-3MeHis-TRH binding",74 nM
same,Ki,"[1]; in saline, read-out: Ki, inhibition of [3H]-3MeHis-TRH binding",1.9 nM
"Cc1cc(=O)oc2cc(NC(=O)[C@H](Cc3c[nH]c4ccccc34)NC(=O)[C@H](Cc3c[nH]c4ccccc34)NC(=O)[C@H](Cc3ccc(O)cc3)NC(=O)[C@@H]3CCCN3C(=O)[C@H](CC(N)=O)NC(=O)[C@@H]3CCC(=O)N3)ccc12 [JAK 1, Glp-Asn-Pro-LTyr-LTrp-LTrp-AMC] ([pGlu]NPYWW-{AMC})",Ki,[1]; [8],> 100000 nM
same,Affinity for [3H]-3MeHis-TRH-labelled receptors in rat brain cortex,[1],low affinity
same,Ki,[2],1 nM
"Cc1cc(=O)oc2cc(NC(=O)[C@@H](Cc3c[nH]c4ccccc34)NC(=O)[C@@H](Cc3c[nH]c4ccccc34)NC(=O)[C@@H](Cc3ccc(O)cc3)NC(=O)[C@@H]3CCCN3C(=O)[C@H](CC(N)=O)NC(=O)[C@@H]3CCC(=O)N3)ccc12 [JAK 1D, Glp-Asn-Pro-DTyr-DTrp-DTrpAMC] ([pGlu]NP[dY][dW][dW]-{AMC})",Ki,[1]; [9],60 nM
same,Ki,[2],30 nM
"Cc1cc(=O)oc2cc(NC(=O)[C@H](Cc3c[nH]c4ccccc34)NC(=O)[C@H](Cc3ccc(O)cc3)NC(=O)[C@@H]3CCCN3C(=O)[C@H](CC(N)=O)NC(=O)[C@@H]3CCC(=O)N3)ccc12 [JAK 2, Glp-Asn-Pro-LTyr-LTrp-AMC] ([pGlu]NPYW-{AMC})",Ki,[1]; [8],~40000 nM
same,Affinity for [3H]-3MeHis-TRH-labelled receptors in rat brain cortex,[1],low affinity
"Cc1cc(=O)oc2cc(NC(=O)[C@@H](Cc3c[nH]c4ccccc34)NC(=O)[C@@H](Cc3ccc(O)cc3)NC(=O)[C@@H]3CCCN3C(=O)[C@H](CC(N)=O)NC(=O)[C@@H]3CCC(=O)N3)ccc12 [JAK 2D, Glp-Asn-Pro-DTyr-DTrpAMC] ([pGlu]NP[dY][dW]-{AMC})",Ki,[1]; [9],3.7 nM
same,Affinity for [3H]-3MeHis-TRH-labelled receptors compared with 3MeHis-TRH,[1],greater affinity
same,Ki,[2],100 nM
"NC(=O)C[C@H](NC(=O)[C@@H]1CCC(=O)N1)C(=O)N1CCC[C@H]1C(=O)N[C@@H](Cc1ccc(O)cc1)C(=O)N[C@@H](Cc1c[nH]c2ccccc12)C(=O)N[C@@H](Cc1c[nH]c2ccccc12)C(N)=O [JAK 3, Glp-Asn-Pro-LTyr-LTrp-LTrpNH2] ([pGlu]NPYWW-NH2)",Ki,[2],730 nM
"NC(=O)C[C@H](NC(=O)[C@@H]1CCC(=O)N1)C(=O)N1CCC[C@H]1C(=O)N[C@@H](Cc1ccc(O)cc1)C(=O)N[C@@H](Cc1c[nH]c2ccccc12)C(N)=O [JAK 4, Glp-Asn-Pro-LTyr-LTrp-NH2] ([pGlu]NPYW-NH2)",Ki,[1]; [8],120 nM
"NC(=O)C[C@H](NC(=O)[C@@H]1CCC(=O)N1)C(=O)N1CCC[C@H]1C(=O)N[C@H](Cc1ccc(O)cc1)C(=O)N[C@H](Cc1c[nH]c2ccccc12)C(N)=O [JAK 4D, Glp-Asn-Pro-D-Tyr-D-TrpNH2] ([pGlu]NP[dY][dW]-NH2)",Ki,[1]; [9],5.5 nM
same,Affinity for [3H]-3MeHis-TRH-labelled receptors compared with 3MeHis-TRH,[1],greater affinity
same,Effect of pre-treatment on peak WDS response to 10 mg/kg TRH,Male Wistar rats [3]; 1 mg/kg,enhanced
same,Occurrence of WDS,Male Wistar rats [3]; 1 mg/kg,comparable with the response produced by 5 mg/kg TRH
same,Responses on co-administration with 10 mg/kg TRH,Male Wistar rats [4]; 0.1 mg/kg,equivalent to those achieved by 20 and 50 mg/kg TRH
same,Effect of pre-treatment on stimulatory effect of 10 mg/kg TRH,"Male Wistar rats [4]; 0.1 mg/kg, 15-20 min after TRH",enhanced
same,Activity response compared with TRH,Male Wistar rats [4]; 1 mg/kg JAK4-D,comparable to that produced by TRH 5 mg/kg
same,Effect of pre-treatment on responses to 10 mg/kg TRH,"Male Wistar rats [4]; 1 mg/kg, entire observation period",enhanced and prolonged
same,Effect on spontaneous rat activity scores vs vehicle,Male Wistar rats [4]; 0.1-5 mg/kg i.p.,transient increase
same,Sleep time,Male Wistar rats [5],54.1 ± 2.4 min
same,Ki,[2],110 nM
"Cc1cc(=O)oc2cc(NC(=O)[C@@H]3CCCN3C(=O)[C@H](CC(N)=O)NC(=O)[C@@H]3CCC(=O)N3)ccc12 [JAK 5, Glp-Asn-Pro-AMC] ([pGlu]-Asn-Pro-{AMC})",Affinity compared to TRH for [3H]-3MeHis-TRH-labelled receptors in rat cortical membranes,[6],relatively low affinity
same,Effect on central effects of TRH in vivo,Male Wistar rats [7],amplify
same,Ki,[2],970 nM
"NC(=O)C[C@H](NC(=O)[C@@H]1CCC(=O)N1)C(=O)N1CCC[C@H]1C(N)=O [JAK 6, Glp-Asn-ProNH2] ([pGlu]-Asn-Pro-NH2)",Affinity compared to TRH for [3H]-3MeHis-TRH-labelled receptors in rat cortical membranes,[6],relatively low affinity
same,Ki,[2],16100 nM
"NC(=O)[C@@H](Cc1c[nH]c2ccccc12)NC(=O)[C@@H](Cc1ccc(O)cc1)NC(=O)[C@@H]1CCCN1C(=O)[C@H](Cc1c[nH]cn1)NC(=O)[C@@H]1CCC(=O)N1 [JAK 7D, Glp-His-Pro-D-Tyr-D-TrpNH2] ([pGlu]HP[dY][dW]-NH2)",Ki,[1]; [9],1000 nM
same,Ki,[2],19600 nM
"NC(=O)[C@@H]1CCCN1C(=O)[C@H](Cc1c[nH]cn1)NC(=O)[C@@H]1CCC(=O)N1 [TRH, pyroglutamyl-histidyl-prolineamide, reference compound]",Ki,[1]; [8],22 nM
same,Effect on WDS,Male Wistar rats [3]; TRH i.p.,concentration-dependent increase
same,Persistence of effects on WDS,Male Wistar rats [3]; TRH i.p.,approximately 20 min
same,Time of maximum numbers of WDS post administration,Male Wistar rats [3]; TRH i.p.,5 min
same,Effect on rat activity,Male Wistar rats [4]; TRH 5-50 mg/kg,dose-dependent increase
same,Sleep time,Male Wistar rats [5],54.5 ± 4.3 min
same,Effect on barbiturate-induced sleep time,Male Wistar rats [5],"significantly (p<0.05, Student's t-test) reduce"
[^3H][3-Me-His^2]TRH [reference compound],Kd,"[6]; single population of high affinity sites (Sharif 1989, Kelly et al., 2002), read-out: Kd on rat brain cortical membranes",~5 nM
[pGlu]NP[dY][dW]-NH2,Effect on barbiturate-induced sleep time,Male Wistar rats [5],"significantly (p<0.05, Student's t-test) reduce"

# Source: patent US7713935B2, “Compounds that modulate TRH actions” (The Provost, Fellows and Scholars of The College of The …, priority 2004, dated 2010)
